Data: US8440718B2, “Modulation of inflammation related to columnar epithelia” (The Brigham and Women's Hospital, Inc., priority 1991, dated 2013)
Marks after values point to notes of the source that are not given here.

Columns and labels:
[1] = system: human PMN migration across inverted T84 epithelial monolayers; assay: PMN transepithelial migration assay, basolateral-to-apical direction (inverted monolayers), fMLP gradient, myeloperoxidase readout; format: cell-based; conditions: for inhibition of PMN migration, basolateral-to-apical (total MPO activity): 10 nM, 15 min pre-incubation 37°C, 1 μM fMLP, 120 min
Protocol: Cell culture Approximately 350 epithelial monolayers were used for these studies. T84 intestinal epithelial cells (passages 70-95) were grown and maintained as confluent monolayers on collagen coated permeable support. Monolayers were grown on 0.33 cm^2 ring-supported polycarbonate filters (Costar Corp., Cambridge, Mass.) and utilized 6-14 days after plating as described in Example 2. Transepithelial resistance to passive ion flow was measured as described in Parkos C. A., et al. (1991). J. Clin. Invest. 88: 1605-1612); and Parkos C. A., et al. (1992). J. Cell. Biol. 117: 757-764). Inverted monolayers used to study migration of PMN in the basolateral-to-apical direction were constructed as described in Parkos C. A., et al. (1991). J. Clin. Invest. 88:1605-1612).
Migration assay: The PMN transepithelial migration assay has been detailed in Nash S., et al. (1987). J. Clin. Invest. 80: 1104-1113; Nash S., et al. (1991). J. Clin. Invest 87: 1474-1477); Parkos C. A., et al. (1991). J. Clin. Invest. 88: 1605-1612); and Parkos C. A., et al. (1992). J. Cell. Biol. 117: 757-764. Briefly, human PMN were isolated from normal human volunteers and suspended in modified HBSS (without Ca^2+ and Mg^2+, with 10 mM Hepes, pH 7.4, Sigma) at a concentration of 5×10^7/ml. Prior to addition of PMN, T84 monolayers were extensively rinsed in HBSS to remove residual serum components. Migration assays were performed by the addition of PMN (40 μl) to HBSS ([…]) in the upper chambers after chemoattractant (1 μM fMLP in HBSS) was added to the opposing (lower) chambers. Unless otherwise indicated, PMN were not washed free of LXA4 prior to addition to monolayers, and therefore, a five-fold dilution of lipoxin was present during the migration assay. For apical-to-basolateral migration experiments, PMN (2×10^6) were added at time 0. Migration in the basolateral-to-apical direction, while qualitatively similar, is substantially more efficient than in the apical-to-basolateral direction. (Parkos C. A., et al. (1991). J. Clin. Invest. 88: 1605-1612). Therefore, 5-fold fewer PMN (4×10^5) were added when migration proceeded in the basolateral-to-apical direction in order that baseline migration signals be approximately equivalent in both directions. (Parkos C. A., et al. (1991). J. Clin. Invest. 88: 1605-1612). Migration was allowed to proceed for 120 minutes, unless otherwise noted. All PMN transepithelial migration experiments were performed in a 37° C. room to ensure that epithelial monolayers, solutions, plasticware, etc., were maintained at uniform 37° C. temperature.
Migration was quantitated by assaying for the PMN azurophilic granule marker myeloperoxidase (MPO) as described previously (Parkos C. A., et al. (1991). J. Clin. Invest 88: 1605-1612). Following each migration assay, non-adherent PMN were extensively washed from the surface of the monolayer and PMN cell equivalents (PMN CE), estimated from a standard curve, were assessed as the number of PMN's associated with the monolayer, the number which had completely traversed the monolayer (ie. across the monolayer into the reservoir bath), as well as the total number of transmigrating PMN (the sum of monolayer and reservoir-associated PMN).
Data Presentation: Individual experiments were performed using large numbers of uniform groups of monolayers and PMN from individual blood donors on individual days. PMN isolation was restricted to five different blood donors (repetitive donations) over the course of these studies. Myeloperoxidase assay data were compared by two-factor analysis of variance (ANOVA) or by comparison of means using Student's t-Test PMN migration results are represented as PMN CE derived from a daily standard PMN dilution curve. Monolayer-associated PMN are represented as the number of PMN CE per monolayer and reservoir-associated PMN (ie. PMN which had completely traversed the monolayer into the lower chamber) are represented as the number of PMN CE/ml (total volume of 1 ml). […]

[2] = system: human PMN migration across T84 epithelial monolayers; assay: Effect of inhibitors on baseline and LXA4-elicited PMN transepithelial migration, apical-to-basolateral; format: cell-based
[3] = system: neutrophil transmigration across T84 monolayers; assay: Neutrophil transmigration across T84 monolayers by resistance or myeloperoxidase assay, Example 2; format: cell-based, human; conditions: fMLP 10^−6 and 10^−7 M
Description: (§1) Preparation of monolayers: Normal or inverted monolayers can be constructed for a physiological microassay using the commercially available insert system (Costar inserts, 0.33 cm^2, 5 μm polycarbonate filters). The larger pore size is crucial for allowing neutrophils to penetrate the filter. Collagen 1 must coat the filters to allow attachment of T84 cells. Original descriptions of the collagen coat involved procedures in which the collagen was chemically crosslinked Dharmsathaphorn, K. et al; Meth. Enzymol. 192:354-389; 1990. Dharmsathaphom, K. et al; Am. J. Physiol. 246 (Gastrointest. Liver Physiol. 9):G204-G208; 1984.
(§2) Isolation of neutrophils: Neutrophils are isolated from whole blood using a gelatin-sedimentation technique. Briefly, whole blood, anticoagulated with citrate/dextrose, is centrifuged at 300×g for 20 minutes (20° C.). The plasma and buffy coat are carefully removed using a curved, siliconized glass pipette which is attached to a vacuum trap. Care must be taken not to aspirate the interface between the buffy coat and RBC since this is where PMN reside. […]
For measurements, bridges are positioned as described, and the spontaneous transepithelial electrical potential and the instantaneous potential generated by passing 25 μA of current are measured. […] Using these values and Ohm's Law, tissue resistance and transepithelial current are then calculated. […]

[4] = system: neutrophil transmigration across T84 monolayers; assay: Neutrophil migration across inverted T84 monolayers (basolateral to apical), myeloperoxidase assay, Example 2; format: cell-based, human; conditions: FMLP 10^−6 M, PMN 6 × 10^6/cm^2
Description: as §1
Inverted monolayers can also be grown using this technique. For this 0.8 mm thick lexan rings having the same dimension of the base of Costar inserts are machined, deburred, cleaned by boiling with a trace of detergent and subsequently exhaustively washed, and attached to the underside of the insert using General Electric RTV Silicone glue (this underside ring is necessary for a peripheral electrical seal). After drying overnight, the inserts are sterilized by submersion in 70% ethanol (4-hr overnight), inverted onto a sterile petri dish in a hood, and allowed to dry. Collagen and cells are added to the filter (underside now facing up) exactly as with unmodified inserts and cells are allowed to attach for 4 hours before righting the inserts into the 24 well holding plates. Subsequent treatment of the monolayers is identical to that described above.
as §2, with “trap.” for “trap. Care must be taken not to aspirate the interface between the buffy coat and RBC since this is where PMN reside.”
Myeloperoxidase assay of neutrophil transepithelial migration: PMN contents of monolayers and lower chambers can be quantitated by assaying the PMN-specific azurophil granule marker, myeloperoxidase (MPO). […]

CCCCC[C@H](O)[C@H](O)/C=C/C=C/C=C\C=C\[C@@H](O)CCCC(=O)O (relative stereo) [LXB4, (5S, 14R, 15S)-trihydroxy-6,10,12-trans-8-cis-eicosatetraenoic acid]
effect on PMN migration in basolateral-to-apical direction [1]: no effect
inhibition of PMN migration, basolateral-to-apical (total MPO activity) [1]: 7±4%

CCCCCC(O)C=CC=CC=CC=CC(O)C(O)CCCC(=O)O (stereo not drawn) [11-trans-LXA4]
inhibition of PMN migration, basolateral-to-apical (total MPO activity) [1]: 16±6%

CC1CNCCN1S(=O)(=O)c1cccc2cnccc12 (stereo not shown) [Compound H7]
inhibition of PMN transepithelial migration compared to vehicle control ([2]; H7 100 μM final concentration): 91±4%

CC(C)c1ccc2c(c1)c(SC(C)(C)C)c(CC(C)(C)C(=O)O)n2Cc1ccc(Cl)cc1 [MK886]
effect on LXA4-elicited increase in PMN transepithelial migration ([2]; MK886 10 ng/ml): did not effect
effect on baseline fMLP driven PMN migration ([2]; MK886 10 ng/ml): did not alter

COc1ccc2c(c1)c(CC(=O)O)c(C)n2C(=O)c1ccc(Cl)cc1 [indomethacin]
baseline PMN migration, % vehicle control ([2]; indomethacin 50 μM, 15 min, 37°C, fMLP gradient): 109±13 % vehicle control

N-formyl-Met-Leu-Phe [fMLP]
stimulation of neutrophil transmigration [3]: effective in stimulating transmigration
Neutrophil Cell Equivalents In Monolayers [4]: 5.47 × 10^4
Neutrophil Cell Equivalents In Opposite Reservoir [4]: 85.30^# × 10^4
Neutrophil Cell Equivalents Total [4]: 90.77^# × 10^4

pertussis toxin
inhibition of control, LXA4-elicited migration ([2]; PMN pre-exposed to pertussis toxin 2 μg/ml, then LXA4): 87±4%
inhibition of baseline fMLP driven migration compared to vehicle control ([2]; pertussis toxin 2 μg/ml): 91±8%
